Assay results from ChEMBL document CHEMBL3797079, “Synergistic reduction of HIV-1 infectivity by 5-azacytidine and inhibitors of ribonucleotide reductase” (Bioorg Med Chem, 2016).
Active and inactive are the calls of the source. The calls are words filed in the database; no cut-off is given here.

Legend:
U373-MAGI [1] = test: Effect on dRGU-TP level in human U373-MAGI cells at 25 nM preincubated for 2 hrs followed by 5-aza-dC addition measured after 4 hrs by LC-MS/MS analysis; type: functional, cell-based
U373-MAGI [2] = test: Reduction in dCTP level in human U373-MAGI cells at 2.5 nM preincubated for 2 hrs followed by 5-aza-dC addition measured after 4 hrs by LC-MS/MS analysis relative to 5-aza-dC; type: functional, cell-based
U373-MAGI [3] = test: Reduction in dCTP level in human U373-MAGI cells at 25 nM preincubated for 2 hrs followed by 5-aza-dC addition measured after 4 hrs by LC-MS/MS analysis relative to 5-aza-dC; type: functional, cell-based
U373-MAGI [4] = test: Increase in 5-aza-dCTP/dCTP ratio in human U373-MAGI cells at 25 nM preincubated for 2 hrs followed by 5-aza-C addition measured after 4 hrs by LC-MS/MS analysis relative to 5-aza-C; type: functional, cell-based
U373-MAGI [5] = test: Reduction in dCTP level in human U373-MAGI cells at 2.5 nM after 6 hrs by LC-MS/MS analysis; type: functional, cell-based
U373-MAGI [6] = test: Reduction in dCTP level in human U373-MAGI cells at 25 nM after 6 hrs by LC-MS/MS analysis; type: functional, cell-based
[7] = Reduction in dATP level in human U373-MAGI cells at 2.5 nM after 6 hrs by LC-MS/MS analysis; type: functional; parameters: scale not given: the % may be the effect or the level left
U373-MAGI [8] = test: Reduction in dATP level in human U373-MAGI cells at 25 nM after 6 hrs by LC-MS/MS analysis; type: functional, cell-based
U373-MAGI [9] = test: Effect on 5-aza-dCTP level in human U373-MAGI cells at 2.5 nM preincubated for 2 hrs followed by 5-aza-dC addition measured after 4 hrs by LC-MS/MS analysis; type: functional, cell-based
U373-MAGI [10] = test: Effect on 5-aza-dCTP level in human U373-MAGI cells at 25 nM preincubated for 2 hrs followed by 5-aza-dC addition measured after 4 hrs by LC-MS/MS analysis; type: functional, cell-based
U373-MAGI [11] = test: Reduction in dCTP level in human U373-MAGI cells at 2.5 nM preincubated for 2 hrs followed by 5-aza-C addition measured after 4 hrs by LC-MS/MS analysis; type: functional, cell-based
U373-MAGI [12] = test: Reduction in dCTP level in human U373-MAGI cells at 25 nM preincubated for 2 hrs followed by 5-aza-C addition measured after 4 hrs by LC-MS/MS analysis relative to 5-aza-C; type: functional, cell-based
U373-MAGI [13] = test: Reduction in dRGU-TP level in human U373-MAGI cells at 2.5 nM preincubated for 2 hrs followed by 5-aza-C addition measured after 4 hrs by LC-MS/MS analysis; type: functional, cell-based
U373-MAGI [14] = test: Reduction in dRGU-TP level in human U373-MAGI cells at 25 nM preincubated for 2 hrs followed by 5-aza-C addition measured after 4 hrs by LC-MS/MS analysis; type: functional, cell-based
U373-MAGI [15] = test: Increase in 5-aza-dCTP/dCTP ratio in human U373-MAGI cells at 2.5 nM preincubated for 2 hrs followed by 5-aza-dC addition measured after 4 hrs by LC-MS/MS analysis relative to 5-aza-dC; type: functional, cell-based
U373-MAGI [16] = test: Increase in 5-aza-dCTP/dCTP ratio in human U373-MAGI cells at 25 nM preincubated for 2 hrs followed by 5-aza-dC addition measured after 4 hrs by LC-MS/MS analysis relative to 5-aza-dC; type: functional, cell-based
[17] = system: Human immunodeficiency virus 1; test: Potentiation of 5-Aza-C-induced antiviral activity against VSV-G pseudotyped HIV-1 NL4-3 infected in human U373-MAGI cells assessed as decrease in 5-Aza-C EC50 at 2.5 nM preincubated for 2 hrs followed by 5-Aza-C addition for 2 hrs and subsequent viral infection measured at 72 hrs post infection by flow cytometric analysis relative to control; type: functional
[18] = system: Human immunodeficiency virus 1; test: Antiviral activity against VSV-G pseudotyped HIV-1 NL4-3 infected in human U373-MAGI cells assessed as reduction in viral infectivity at 2.5 nM incubated for 4 hrs prior to viral infection measured at 72 hrs post infection by flow cytometric analysis; type: functional, organism-based
[19] = Cytotoxicity against human U373-MAGI cells at 2.5 nM measured at 72 hrs by Celltiter-Glo luminescent cell viability assay; type: cell-based; conditions: 0.0025 µM
U373-MAGI [20] = test: Increase in 5-aza-dCTP/dCTP ratio in human U373-MAGI cells at 2.5 nM preincubated for 2 hrs followed by 5-aza-C addition measured after 4 hrs by LC-MS/MS analysis relative to 5-aza-C; type: functional, cell-based
U373-MAGI [21] = test: Reduction in 5-aza-dCTP level in human U373-MAGI cells at 2.5 nM preincubated for 2 hrs followed by 5-aza-C addition measured after 4 hrs by LC-MS/MS analysis; type: functional, cell-based
U373-MAGI [22] = test: Reduction in dTTP level in human U373-MAGI cells at 2.5 nM after 6 hrs by LC-MS/MS analysis; type: functional, cell-based
U373-MAGI [23] = test: Reduction in dTTP level in human U373-MAGI cells at 25 nM after 6 hrs by LC-MS/MS analysis; type: functional, cell-based
U373-MAGI [24] = test: Reduction in dGTP level in human U373-MAGI cells at 2.5 nM after 6 hrs by LC-MS/MS analysis; type: functional, cell-based
U373-MAGI [25] = test: Reduction in dGTP level in human U373-MAGI cells at 25 nM after 6 hrs by LC-MS/MS analysis; type: functional, cell-based
U373-MAGI [26] = test: Reduction in 5-aza-dCTP level in human U373-MAGI cells at 25 nM preincubated for 2 hrs followed by 5-aza-C addition measured after 4 hrs by LC-MS/MS analysis; type: functional, cell-based
U373-MAGI [27] = test: Effect on dRGU-TP level in human U373-MAGI cells at 2.5 nM preincubated for 2 hrs followed by 5-aza-dC addition measured after 4 hrs by LC-MS/MS analysis; type: functional, cell-based

## Nc1ccn([C@@H]2O[C@H](CO)[C@@H](O)C2(F)F)c(=O)n1 [GEMCITABINE]
U373-MAGI [1]
  Activity: inactive
U373-MAGI [2]
  Activity: Active
U373-MAGI [3]
  Activity: Active
U373-MAGI [4]
  Activity: inactive
U373-MAGI [5]
  Activity: inactive
U373-MAGI [6]
  Activity: Active
[7]
  Activity: 30%
U373-MAGI [8]
  Activity: Active
U373-MAGI [9]
  Activity: inactive
U373-MAGI [10]
  Activity: inactive
U373-MAGI [11]
  Activity: Active
U373-MAGI [12]
  Activity: Active
U373-MAGI [13]
  Activity: inactive
U373-MAGI [14]
  Activity: Active
U373-MAGI [15]
  Activity: Active
U373-MAGI [16]
  Activity: Active
[17]
  fold change (FC): 2.5
[18]
  Activity: Active
[19]
  Activity: Non-toxic
U373-MAGI [20]
  Activity: inactive
U373-MAGI [21]
  Activity: inactive
U373-MAGI [22]
  Activity: inactive
U373-MAGI [23]
  Activity: inactive
U373-MAGI [24]
  Activity: inactive
U373-MAGI [25]
  Activity: Active
U373-MAGI [26]
  Activity: Active
U373-MAGI [27]
  Activity: inactive
